{"source": "ChEMBL document CHEMBL5055663", "about": "“Histamine H3 receptor antagonists with peptidomimetic (keto)piperazine structures to inhibit Aβ oligomerisation” (Bioorg Med Chem, 2021)", "key": {"Histamine H3 receptor [1]": {"molecular_target": "T1, Histamine H3 receptor (Homo sapiens, UniProt Q9Y5N1)", "T1 sequence (Q9Y5N1 whole entry)": "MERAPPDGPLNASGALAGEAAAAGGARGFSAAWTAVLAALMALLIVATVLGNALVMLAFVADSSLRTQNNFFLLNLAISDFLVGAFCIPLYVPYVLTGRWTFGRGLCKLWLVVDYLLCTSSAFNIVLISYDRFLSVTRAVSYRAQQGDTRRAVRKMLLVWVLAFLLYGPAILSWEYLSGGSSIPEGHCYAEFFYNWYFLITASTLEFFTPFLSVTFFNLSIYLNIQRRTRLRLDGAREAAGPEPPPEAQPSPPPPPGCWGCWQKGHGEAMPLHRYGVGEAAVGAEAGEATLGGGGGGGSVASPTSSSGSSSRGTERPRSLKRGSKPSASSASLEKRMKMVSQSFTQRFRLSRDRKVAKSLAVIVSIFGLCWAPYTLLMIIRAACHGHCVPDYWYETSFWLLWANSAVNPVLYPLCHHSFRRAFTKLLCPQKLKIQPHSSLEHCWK", "test": "Displacement of [3H]Nalpha-methylhistamine from recombinant human histamine H3 receptor expressed in HEK293 cells incubated for 90 mins by competition binding assay", "format": "cell-based"}, "[2]": {"molecular_target": "T2, Amyloid-beta precursor protein (Homo sapiens, UniProt P05067)", "T2 sequence (P05067 whole entry)": "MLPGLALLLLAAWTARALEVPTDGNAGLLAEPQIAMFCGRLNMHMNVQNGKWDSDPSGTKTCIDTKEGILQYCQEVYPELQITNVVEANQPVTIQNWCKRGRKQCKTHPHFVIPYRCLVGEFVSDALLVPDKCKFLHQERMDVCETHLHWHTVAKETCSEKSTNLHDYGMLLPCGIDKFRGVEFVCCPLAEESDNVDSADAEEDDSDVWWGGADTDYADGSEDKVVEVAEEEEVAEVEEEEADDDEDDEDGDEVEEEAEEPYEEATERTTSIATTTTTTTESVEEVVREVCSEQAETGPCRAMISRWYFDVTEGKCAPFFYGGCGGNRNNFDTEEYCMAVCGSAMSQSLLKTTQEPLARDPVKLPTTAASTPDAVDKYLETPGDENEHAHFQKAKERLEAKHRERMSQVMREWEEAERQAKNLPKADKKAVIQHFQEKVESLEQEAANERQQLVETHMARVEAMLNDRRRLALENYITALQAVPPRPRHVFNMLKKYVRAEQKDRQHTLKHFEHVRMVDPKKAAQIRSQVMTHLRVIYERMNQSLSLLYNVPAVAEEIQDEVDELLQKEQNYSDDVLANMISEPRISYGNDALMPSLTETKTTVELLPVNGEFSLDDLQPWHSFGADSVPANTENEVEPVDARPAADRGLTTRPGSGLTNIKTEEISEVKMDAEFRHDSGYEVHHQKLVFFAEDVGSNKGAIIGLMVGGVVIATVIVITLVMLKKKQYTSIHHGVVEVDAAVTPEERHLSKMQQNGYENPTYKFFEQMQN", "test": "Binding affinity to CM-5 sensor chip immobilized beta-amyloid monomer (1 to 42) (unknown origin) at 200 uM by SPR analysis"}, "Histamine H3 receptor [3]": {"molecular_target": "T1, Histamine H3 receptor", "test": "Antagonist activity at histamine H3 receptor (unknown origin)"}, "[4]": {"molecular_target": "T2, Amyloid-beta precursor protein", "test": "Binding affinity to CM-5 sensor chip immobilized beta-amyloid monomer (1 to 42) (unknown origin) assessed as dissociation constant by SPR analysis"}}, "note": "The source made the active and inactive calls. The calls are words filed in the database; no cut-off is given here."}
{"smiles": "C[C@@H]1NC(=O)[C@H](Cc2ccc(OCCCN3CCCCC3)cc2)NC1=O", "values": [{"measurement": "Ki", "setting": "Histamine H3 receptor [1]", "result": 0.159, "unit": "µM"}, {"measurement": "Activity", "setting": "[2]", "result": "inactive"}]}
{"smiles": "CC(=O)N1C(=O)/C(=C/c2ccc(OCCCN3CCCCC3)cc2)NC(=O)[C@@H]1Cc1ccccc1", "values": [{"measurement": "Ki", "setting": "Histamine H3 receptor [1]", "result": 0.0044, "unit": "µM"}, {"measurement": "Activity", "setting": "[2]", "result": "inactive"}]}
{"smiles": "O=C1CN(C(=O)c2ccc(OCCCN3CCCCC3)cc2)CCN1Cc1ccccc1", "values": [{"measurement": "Ki", "setting": "Histamine H3 receptor [1]", "result": 0.0049, "unit": "µM"}]}
{"smiles": "O=C1CNC(=O)[C@@H](Cc2ccc(OCCCN3CCCCC3)cc2)N1", "values": [{"measurement": "Ki", "setting": "Histamine H3 receptor [1]", "result": 0.158, "unit": "µM"}, {"measurement": "Activity", "setting": "[2]", "result": "inactive"}]}
{"smiles": "O=C1CN(C(=O)c2ccc(OCCCN3CCCCC3)cc2)CCN1", "values": [{"measurement": "Ki", "setting": "Histamine H3 receptor [1]", "result": 0.0028, "unit": "µM"}]}
{"smiles": "CC(=O)N1CC(=O)N/C(=C\\c2ccc(OCCCN3CCCCC3)cc2)C1=O", "values": [{"measurement": "Ki", "setting": "Histamine H3 receptor [1]", "result": 0.0038, "unit": "µM"}, {"measurement": "Activity", "setting": "[2]", "result": "inactive"}]}
{"smiles": "CN1C[C@H]2CCN(c3ccc(-c4ccc(-n5ncccc5=O)cc4)cc3)[C@H]2C1", "values": [{"measurement": "Ki", "setting": "Histamine H3 receptor [3]", "result": 0.002, "unit": "µM"}]}
{"smiles": "O=C1CN(Cc2ccc(OCCCN3CCCCC3)cc2)CCN1Cc1ccccc1", "values": [{"measurement": "Ki", "setting": "Histamine H3 receptor [1]", "result": 0.0113, "unit": "µM"}, {"measurement": "Kd", "setting": "[4]", "result": 51.6, "unit": "µM"}]}
{"smiles": "O=C1N[C@@H](Cc2ccc(OCCCN3CCCCC3)cc2)C(=O)N[C@H]1Cc1ccccc1", "values": [{"measurement": "Ki", "setting": "Histamine H3 receptor [1]", "result": 0.039, "unit": "µM"}, {"measurement": "Kd", "setting": "[4]", "result": 12000, "unit": "µM"}, {"measurement": "Activity", "setting": "[2]", "result": "inactive"}]}
{"smiles": "O=c1[nH]/c(=C\\c2ccc(OCCCN3CCCCC3)cc2)c(=O)[nH]/c1=C\\c1ccccc1", "values": [{"measurement": "Ki", "setting": "Histamine H3 receptor [1]", "result": 0.0038, "unit": "µM"}, {"measurement": "Activity", "setting": "[2]", "result": "inactive"}]}
{"smiles": "c1ccc(C[C@H]2CN[C@@H](Cc3ccc(OCCCN4CCCCC4)cc3)CN2)cc1", "values": [{"measurement": "Ki", "setting": "Histamine H3 receptor [1]", "result": 0.0011, "unit": "µM"}, {"measurement": "Activity", "setting": "[2]", "result": "inactive"}]}
{"smiles": "O=C1N[C@@H](Cc2ccccc2)C(=O)N/C1=C\\c1ccc(OCCCN2CCCCC2)cc1", "note": "(stereo in doubt)", "values": [{"measurement": "Ki", "setting": "Histamine H3 receptor [1]", "result": 0.002, "unit": "µM"}, {"measurement": "Activity", "setting": "[2]", "result": "inactive"}]}
{"smiles": "O=C1CNC(=O)[C@H](Cc2ccc(OCCCN3CCCCC3)cc2)N1", "values": [{"measurement": "Ki", "setting": "Histamine H3 receptor [1]", "result": 0.074, "unit": "µM"}, {"measurement": "Activity", "setting": "[2]", "result": "inactive"}]}
{"smiles": "O=C1CNC(=O)/C(=C/c2ccc(OCCCN3CCCCC3)cc2)N1", "values": [{"measurement": "Ki", "setting": "Histamine H3 receptor [1]", "result": 0.0223, "unit": "µM"}, {"measurement": "Activity", "setting": "[2]", "result": "inactive"}]}
{"smiles": "O=C1CN(Cc2ccc(OCCCN3CCCCC3)cc2)C(=O)CN1", "values": [{"measurement": "Ki", "setting": "Histamine H3 receptor [1]", "result": 0.0049, "unit": "µM"}, {"measurement": "Kd", "setting": "[4]", "result": 1550, "unit": "µM"}]}
{"smiles": "c1cc(OCCCN2CCCCC2)ccc1C[C@H]1CNCCN1", "values": [{"measurement": "Ki", "setting": "Histamine H3 receptor [1]", "result": 0.002, "unit": "µM"}, {"measurement": "Activity", "setting": "[2]", "result": "inactive"}]}
{"smiles": "CC(C)[C@@H]1NC(=O)[C@H](Cc2ccc(OCCCN3CCCCC3)cc2)NC1=O", "values": [{"measurement": "Ki", "setting": "Histamine H3 receptor [1]", "result": 0.219, "unit": "µM"}, {"measurement": "Activity", "setting": "[2]", "result": "inactive"}]}
